EP4647428A1, “COMPOUND CONTAINING 2-METHYL-2-(3-(PIPERIDIN-3-YL)PHENOXY)-2-METHYLPROPANAMIDE SKELETON” (Jiangsu Mingsheng Jutai Biotechnology Co. Ltd, priority 2023, dated 2024)

Legend:
SW480 = assay: CCK8 cell inhibition test on SW480 cells; assay type: cell-based; details: Homo sapiens; CCK-8, SW480 cells, 24 hours incubation at 37°C, compound 20 µM to 0.15625 µM in DMEM (2% FBS)
Method: Cells were digested, counted, and plated in a 96-well plate (flat-bottomed, transparent) with 10,000 cells/100 µl DMEM (10% FBS) per well . • 2. Observe the cell status on the next day and start adding drugs after the cells have fully adhered to the wall; • 3. Dilute the compound in DMEM (2% FBS) in a serial dilution format to concentrations of 20 µM, 10 µM, 5 µM, 2.5 µM, 1.25 µM, 0.625 µM, 0.3125 µM, 0.15625 µM, and 0 µM (with equal volume of DMSO). • 4. Add 100 µl of the above compounds at different concentrations to each well. Repeat for each concentration gradient in duplicate. Leave three blank wells (add only DMEM 2% FBS culture medium without cells) . • 5. Incubate at 37°C for 24 hours . • 6. Add 10 µl of CCK-8 Enhanced Solution to each well. Since the amount of CCK-8 added to each well is relatively small, there may be errors due to the reagent sticking to the well wall. It is recommended to gently tap the culture plate after adding the reagent to help mix it. • 7. Incubate in the incubator for 0.5-4 hours: The amount of formazan formed varies depending on the cell type. In most cases, incubation for 1 hour is sufficient. If color development is insufficient, continue incubation to confirm optimal conditions. • 8. Measure the absorbance at 450nm and 600nm (excluding interference from the reagent background color and the absorbance of the well plate itself); • 9. The final absorbance value is OD450nm-OD600nm, and the inhibition rate is calculated; Inhibition rate = [(Ac−As)/(Ac−Ab)] × 100% [formula] • As: absorbance of the experimental well (culture medium containing cells, CCK-8, and drug to be tested); • Ac: absorbance of control wells (culture medium containing cells, CCK-8, and no test drug); • Ab: absorbance of blank wells (culture medium without cells, test drugs, or CCK-8).

β-catenin = molecular target: T1, β-catenin (Homo sapiens, UniProt P35222); assay: SRP test (Biacore T200, affinity fitting KD to coupled ligand β-catenin); assay type: binding; details: Biacore T200, CM5 chip, 25°C, HEPES pH 7.4
T1 sequence (P35222 1-781): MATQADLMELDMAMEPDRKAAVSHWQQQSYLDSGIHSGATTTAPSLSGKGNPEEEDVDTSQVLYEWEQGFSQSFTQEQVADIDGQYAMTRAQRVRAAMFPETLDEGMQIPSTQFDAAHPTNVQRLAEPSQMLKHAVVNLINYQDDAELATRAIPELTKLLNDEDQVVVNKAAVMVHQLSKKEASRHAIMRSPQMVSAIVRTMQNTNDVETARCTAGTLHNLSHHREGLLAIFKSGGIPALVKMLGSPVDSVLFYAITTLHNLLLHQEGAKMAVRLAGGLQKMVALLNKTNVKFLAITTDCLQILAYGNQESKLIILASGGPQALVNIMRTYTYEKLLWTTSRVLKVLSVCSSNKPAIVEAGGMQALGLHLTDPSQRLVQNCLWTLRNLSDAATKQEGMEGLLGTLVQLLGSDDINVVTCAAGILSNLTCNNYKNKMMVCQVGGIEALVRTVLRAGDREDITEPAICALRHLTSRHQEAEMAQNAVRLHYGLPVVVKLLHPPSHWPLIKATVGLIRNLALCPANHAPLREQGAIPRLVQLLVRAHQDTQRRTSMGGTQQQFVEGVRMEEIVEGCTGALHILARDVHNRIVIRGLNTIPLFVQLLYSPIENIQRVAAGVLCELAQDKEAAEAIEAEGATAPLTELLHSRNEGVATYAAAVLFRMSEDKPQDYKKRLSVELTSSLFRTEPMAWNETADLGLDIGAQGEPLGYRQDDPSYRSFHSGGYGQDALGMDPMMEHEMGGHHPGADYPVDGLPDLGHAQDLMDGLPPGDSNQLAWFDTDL
Method: • 1. The analyte is in powder form. • 2. The temperature is 25°C. • 3. The analytical equipment used was Biacore T200 instrument.
• 1. Ligand β-catenin was diluted with HEPES (pH 7.4) to 0.5 mg/mL • 2. The analyte was dissolved in DMSO and diluted with 0.1% DMSO HEPES (pH 7.4)
3. Experimental Procedure
• 1. Start the Biacore T200 instrument according to standard operating procedures. • 2. Prepare 500 ml of HEPES buffer (pH 7.4) and deionized water (filtered through a 0.22 µm membrane) for rinsing the injection needle. • 3. Start installing the chip and install the CM5 chip according to the standard process. • 4. Prepare to start the formal experiment. The buffer solution will flush the flow system inside the entire system at a high flow rate. • 5. Choose the appropriate procedure based on the sample size. • 6. Start the capture chip. Prepare a sufficient volume of ligand β-catenin, EDC/NHS, and blocking buffer. Initiate the coupling procedure with a 7-minute coupling time and a flow rate of 10 µl/min. The final ligand coupling volume is approximately 16,000 RU. • 7. After the coupling is completed, start the sample detection and set the analyte binding time to 120 s. • The flow rate was 30 µL/min; the dissociation time was 200 s, the flow rate was 30 µL/min; the regeneration time was 30 s, • The flow rate was 30 µL/min. • 8. […]

SMILES	IC50 (SW480) [µM]	Kd (β-catenin) [µM]
CC(C)c1ccc(-c2cccc(S(=O)(=O)N3CCCC(c4cccc(OC(C)(C)C(=O)NCC(=O)N5CCC[C@H]5CN)c4)C3)c2)cc1 (stereo partly shown) [Compound 115-010]	3.56	0.284
CC(C)c1ccc(-c2cccc(S(=O)(=O)N3CCCC(c4cccc(OC(C)(C)C(=O)NCC(=O)N5CC[C@@H](CN)C5)c4)C3)c2)cc1 (stereo partly shown) [Compound 115-012]	< 2.97	0.76
